Laboratory results as given in ChEMBL document CHEMBL1201862, “PubChem BioAssay data set” (2004).
Calls of active or inactive are those of the source.

Assays:
[1] = reduction of Shn3 3'UTR-driven luciferase in osteoblasts – cell-based, Clone20 osteoblasts, firefly luciferase, cherry-picked, dose response (AID 624132); assay type: functional;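 note: firefly luciferase luminescence from reporter carrying the Shn3 3'UTR in osteoblasts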
[2] = target: Hepatocyte nuclear factor 4-alpha (Homo sapiens, UniProt P41235); assay type: functional, cell-based;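 note: biochemical luminescence-based dose-response counterscreen measuring inhibition of HNF4 dimerization, run alongside a screen for blockers of ABHD5–perilipin-5 interaction; split luciferase complementation of HNF4 fusion proteins in cell lysate measuring dimerization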
[3] = target: Potassium voltage-gated channel subfamily KQT member 2 (Rattus norvegicus, UniProt O88943, W236L); test: potentiation of rat KCNQ2 current – cell-based, automated electrophysiology, mechanism study for KCNQ2 potentiator project, dose response (AID 2603); assay type: functional
Vero = test: viability of Vero cells under compound – cytotoxicity control for flavivirus capping enzyme inhibitors (AID 588742); assay type: functional; conditions: Chlorocebus sabaeus
[4] = non-specific 3'UTR reporter inhibition in Clone20-Shn3RL – cell-based, Renilla luciferase, cherry-picked, counter-screen for Shn3 inhibitor project, dose response (AID 624133); assay type: functional
[5] = Luminescence Cell-Based Dose Retest to Confirm Inhibitors of Cancer Stem Cells. [Related pubchem assays (depositor defined):AID2717, AID2721]; assay type: functional; conditions: Homo sapiens
Genome polyprotein = Genome polyprotein (dengue virus type 2, UniProt P29990); test: flavivirus cap methylation enzyme inhibition – biochemical, confirmation dose response, primary screen (AID 588689); assay type: functional
[6] = Intein inhibitors as potential Tuberculosis drugs, a cytotoxicity screen. [Related pubchem assays (depositor defined):AID2221, AID2223, AID434968, AID435010, AID449749, AID449750, AID489010]; assay type: functional
[7] = target: T1, Replicative DNA helicase DnaB (Mycobacterium tuberculosis, UniProt P9WMR3); test: DnaB intein splicing inhibitors, dose response, biochemical, cell-free fluorescence (AID 449749); assay type: functional
T1 sequence (P9WMR3 whole entry): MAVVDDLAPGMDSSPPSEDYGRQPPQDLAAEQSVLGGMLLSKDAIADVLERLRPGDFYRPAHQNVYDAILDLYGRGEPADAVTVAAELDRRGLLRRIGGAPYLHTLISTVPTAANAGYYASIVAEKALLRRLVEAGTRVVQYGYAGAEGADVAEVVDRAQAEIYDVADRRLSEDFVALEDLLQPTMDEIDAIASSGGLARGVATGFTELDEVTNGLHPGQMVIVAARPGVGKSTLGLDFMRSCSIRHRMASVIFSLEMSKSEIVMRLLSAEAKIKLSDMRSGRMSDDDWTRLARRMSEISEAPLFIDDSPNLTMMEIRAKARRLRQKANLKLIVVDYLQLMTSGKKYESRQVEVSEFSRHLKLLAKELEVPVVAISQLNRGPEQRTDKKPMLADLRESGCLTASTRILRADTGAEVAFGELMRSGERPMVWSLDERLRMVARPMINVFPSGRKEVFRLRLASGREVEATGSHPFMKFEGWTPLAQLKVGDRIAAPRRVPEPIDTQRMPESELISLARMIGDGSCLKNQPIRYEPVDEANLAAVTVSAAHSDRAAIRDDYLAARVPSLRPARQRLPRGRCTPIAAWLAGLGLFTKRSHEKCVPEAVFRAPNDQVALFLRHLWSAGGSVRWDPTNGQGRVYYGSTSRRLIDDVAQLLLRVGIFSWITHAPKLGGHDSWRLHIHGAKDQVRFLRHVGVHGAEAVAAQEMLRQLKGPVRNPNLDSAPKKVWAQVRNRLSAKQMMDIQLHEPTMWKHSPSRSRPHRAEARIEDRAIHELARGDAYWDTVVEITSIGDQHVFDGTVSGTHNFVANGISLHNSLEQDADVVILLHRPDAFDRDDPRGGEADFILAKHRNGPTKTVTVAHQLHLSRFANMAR

Protein RecA = target: T2, Protein RecA (Mycobacterium tuberculosis, UniProt P9WHJ3); test: Fluorescence Cell-Free Homogeneous Dose Retest to Identify Inhibitors of RecA-Intein Splicing Activity. [Related pubchem assays (depositor defined):AID2097, AID2223, AID489010, AID492950]; assay type: functional
T2 sequence (P9WHJ3 whole entry): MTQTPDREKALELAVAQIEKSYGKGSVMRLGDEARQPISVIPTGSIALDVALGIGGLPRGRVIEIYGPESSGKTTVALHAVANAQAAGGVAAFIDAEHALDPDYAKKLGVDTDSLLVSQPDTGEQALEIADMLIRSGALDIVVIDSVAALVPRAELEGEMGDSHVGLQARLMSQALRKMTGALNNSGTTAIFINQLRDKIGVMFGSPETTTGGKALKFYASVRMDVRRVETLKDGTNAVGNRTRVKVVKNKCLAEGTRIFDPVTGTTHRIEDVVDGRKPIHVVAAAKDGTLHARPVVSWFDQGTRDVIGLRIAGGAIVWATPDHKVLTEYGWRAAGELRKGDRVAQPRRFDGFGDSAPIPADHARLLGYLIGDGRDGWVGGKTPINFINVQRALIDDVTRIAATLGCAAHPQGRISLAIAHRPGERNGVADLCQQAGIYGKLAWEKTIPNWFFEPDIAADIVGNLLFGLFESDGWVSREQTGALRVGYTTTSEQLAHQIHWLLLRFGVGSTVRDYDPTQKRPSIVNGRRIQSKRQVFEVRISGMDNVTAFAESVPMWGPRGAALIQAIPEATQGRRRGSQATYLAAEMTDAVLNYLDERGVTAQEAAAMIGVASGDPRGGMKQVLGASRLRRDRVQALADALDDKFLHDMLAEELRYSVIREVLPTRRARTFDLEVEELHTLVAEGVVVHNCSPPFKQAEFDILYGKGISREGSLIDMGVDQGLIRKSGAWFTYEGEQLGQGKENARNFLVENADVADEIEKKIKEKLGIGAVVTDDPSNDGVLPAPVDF

Bcl-2-like protein 1 = Bcl-2-like protein 1 (Homo sapiens, UniProt Q07817); test: blockers of BCLXL peptide binding – biochemical, fluorescence polarization, 1536-well, selectivity assay for MCL1 inhibitor project, dose response (AID 2218)
[8] = target: Protein-tyrosine kinase 2-beta (Homo sapiens, UniProt Q14289);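 note: potency of inhibitors of PYK2 kinase phosphorylation of poly-GT substrate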
[9] = target: T3, Induced myeloid leukemia cell differentiation protein Mcl-1 (Homo sapiens, UniProt Q07820); test: blockers of MCL1 binding to BIM peptide – biochemical, fluorescence polarization, BIM-BH3 peptide, 1536-well, dose response (AID 2217)
[10] = target: Glyceraldehyde-3-phosphate dehydrogenase (Homo sapiens, UniProt P04406)
[11] = target: T4, Dual specificity protein phosphatase 6 (Rattus norvegicus, UniProt Q64346)
T4 sequence (Q64346 whole entry): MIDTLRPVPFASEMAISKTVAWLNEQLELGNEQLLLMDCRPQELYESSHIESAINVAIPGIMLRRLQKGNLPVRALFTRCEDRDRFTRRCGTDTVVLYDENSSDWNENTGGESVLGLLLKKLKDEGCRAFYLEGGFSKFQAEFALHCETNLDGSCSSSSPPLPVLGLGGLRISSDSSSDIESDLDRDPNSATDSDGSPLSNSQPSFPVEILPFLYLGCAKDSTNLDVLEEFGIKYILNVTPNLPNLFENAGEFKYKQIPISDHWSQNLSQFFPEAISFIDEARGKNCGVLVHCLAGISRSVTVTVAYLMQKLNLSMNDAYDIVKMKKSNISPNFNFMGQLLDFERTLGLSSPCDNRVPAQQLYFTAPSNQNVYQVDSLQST

[12] = target: T4, Dual specificity protein phosphatase 6; assay type: functional
[13] = target: T5, Tyrosine-protein phosphatase non-receptor type 7 (Homo sapiens, UniProt P35236); assay type: functional
T5 sequence (P35236 whole entry): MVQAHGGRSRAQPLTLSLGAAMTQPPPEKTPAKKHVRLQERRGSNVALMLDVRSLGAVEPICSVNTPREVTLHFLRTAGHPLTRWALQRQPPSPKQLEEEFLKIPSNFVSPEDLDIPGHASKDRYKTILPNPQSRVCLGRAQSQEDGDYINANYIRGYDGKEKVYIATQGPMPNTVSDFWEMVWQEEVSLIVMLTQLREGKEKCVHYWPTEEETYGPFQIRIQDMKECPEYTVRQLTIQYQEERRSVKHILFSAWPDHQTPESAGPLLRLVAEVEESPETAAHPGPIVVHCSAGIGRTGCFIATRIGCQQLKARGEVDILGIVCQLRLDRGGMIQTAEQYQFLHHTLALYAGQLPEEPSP

[14] = target: T3, Induced myeloid leukemia cell differentiation protein Mcl-1; assay type: functional
[15] = M. tuberculosis H37Rv growth inhibitors, H37Rv strain (AID 1626); assay type: functional
NADPH oxidase 1 = target: T6, NADPH oxidase 1 (Homo sapiens, UniProt Q9Y5S8); test: Luminescence-based cell-based dose response assay to identify inhibitors of NADPH oxidase 1 (NOX1).; assay type: functional
T6 sequence (Q9Y5S8 whole entry): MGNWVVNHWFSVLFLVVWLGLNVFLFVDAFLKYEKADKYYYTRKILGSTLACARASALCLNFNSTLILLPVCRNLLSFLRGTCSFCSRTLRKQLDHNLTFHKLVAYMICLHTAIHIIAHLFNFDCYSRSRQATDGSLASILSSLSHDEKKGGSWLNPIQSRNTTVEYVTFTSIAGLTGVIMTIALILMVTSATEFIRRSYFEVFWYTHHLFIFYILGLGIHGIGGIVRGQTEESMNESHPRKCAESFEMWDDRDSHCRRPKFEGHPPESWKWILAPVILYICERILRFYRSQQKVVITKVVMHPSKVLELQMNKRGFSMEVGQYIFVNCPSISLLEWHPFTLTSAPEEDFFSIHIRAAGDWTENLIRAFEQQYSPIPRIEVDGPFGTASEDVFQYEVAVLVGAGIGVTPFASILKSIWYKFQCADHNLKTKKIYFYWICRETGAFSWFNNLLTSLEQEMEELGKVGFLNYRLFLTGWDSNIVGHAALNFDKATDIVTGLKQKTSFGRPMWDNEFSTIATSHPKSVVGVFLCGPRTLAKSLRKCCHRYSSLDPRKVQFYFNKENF

[16] = Luminescence Cell-Based Dose Response to Identify Activators of Luciferase Translation or Activity in H4-C Neuroglioblastoma Cells. [Related pubchem assays: 1829 (Project Summary), 1814 (Primary HTS)]; assay type: functional
[17] = Luminescence Cell-Based Dose Confirmation to Identify Activators of 5'UTR Stem-Loop Driven Alpha-Synuclein mRNA Translation in H4 Neuroglioblastoma Cells. [Related pubchem assays: 1829 (Project Summary), 1814 (Primary HTS)]; assay type: functional
[18] = Luminescence Cell-Based Dose Response to Identify Activators of 5'UTR Stem-Loop Driven Prion Protein mRNA Translation in H4-C Neuroglioblastoma Cells. [Related pubchem assays: 1829 (Project Summary), 1814 (Primary HTS)]; assay type: functional
[19] = Luminescence Cell-Based Dose Response HTS to Identify Activators of Luciferase Translation or Activity in H4 […] Cells. [Related pubchem assays: 1829 (Project Summary), 1814 (Primary HTS)]; assay type: functional
H4 = test: Luminescence Cell-Based Dose Response HTS to Identify Activators of 5'UTR Stem-Loop Driven Prion Protein mRNA Translation in H4 Neuroglioblastoma Cells. [Related pubchem assays: 1829 (Project Summary), 1814 (Primary HTS)]; assay type: functional; conditions: Homo sapiens
[20] = target: T7, Mannose-6-phosphate isomerase (Homo sapiens, UniProt P34949); test: MPI enzyme activity inhibition – biochemical, fluorescence intensity, coupled assay, primary screen (AID 1209)
T7 sequence (P34949 whole entry): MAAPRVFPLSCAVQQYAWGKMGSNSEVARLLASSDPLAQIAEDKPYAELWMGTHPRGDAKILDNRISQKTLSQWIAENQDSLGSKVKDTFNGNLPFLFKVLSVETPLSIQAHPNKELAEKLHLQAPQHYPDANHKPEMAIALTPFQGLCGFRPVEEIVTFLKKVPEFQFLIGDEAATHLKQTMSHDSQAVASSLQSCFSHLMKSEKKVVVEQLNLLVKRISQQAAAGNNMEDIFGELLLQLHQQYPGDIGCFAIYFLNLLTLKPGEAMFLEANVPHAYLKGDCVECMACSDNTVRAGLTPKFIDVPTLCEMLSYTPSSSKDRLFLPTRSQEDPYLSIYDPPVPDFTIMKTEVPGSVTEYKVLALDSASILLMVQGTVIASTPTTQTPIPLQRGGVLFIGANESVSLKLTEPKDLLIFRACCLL

T3 sequence (Q07820 whole entry): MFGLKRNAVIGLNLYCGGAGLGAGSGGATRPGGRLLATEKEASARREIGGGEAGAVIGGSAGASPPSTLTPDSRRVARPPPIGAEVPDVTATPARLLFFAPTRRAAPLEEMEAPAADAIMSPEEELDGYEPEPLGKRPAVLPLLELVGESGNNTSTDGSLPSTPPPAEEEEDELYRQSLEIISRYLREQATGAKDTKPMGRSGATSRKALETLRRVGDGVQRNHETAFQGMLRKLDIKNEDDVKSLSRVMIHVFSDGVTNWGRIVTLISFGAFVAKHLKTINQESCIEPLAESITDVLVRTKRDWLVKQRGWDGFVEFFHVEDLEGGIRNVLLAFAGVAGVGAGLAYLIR
Sequence of Protein-tyrosine kinase 2-beta (Q14289 whole entry): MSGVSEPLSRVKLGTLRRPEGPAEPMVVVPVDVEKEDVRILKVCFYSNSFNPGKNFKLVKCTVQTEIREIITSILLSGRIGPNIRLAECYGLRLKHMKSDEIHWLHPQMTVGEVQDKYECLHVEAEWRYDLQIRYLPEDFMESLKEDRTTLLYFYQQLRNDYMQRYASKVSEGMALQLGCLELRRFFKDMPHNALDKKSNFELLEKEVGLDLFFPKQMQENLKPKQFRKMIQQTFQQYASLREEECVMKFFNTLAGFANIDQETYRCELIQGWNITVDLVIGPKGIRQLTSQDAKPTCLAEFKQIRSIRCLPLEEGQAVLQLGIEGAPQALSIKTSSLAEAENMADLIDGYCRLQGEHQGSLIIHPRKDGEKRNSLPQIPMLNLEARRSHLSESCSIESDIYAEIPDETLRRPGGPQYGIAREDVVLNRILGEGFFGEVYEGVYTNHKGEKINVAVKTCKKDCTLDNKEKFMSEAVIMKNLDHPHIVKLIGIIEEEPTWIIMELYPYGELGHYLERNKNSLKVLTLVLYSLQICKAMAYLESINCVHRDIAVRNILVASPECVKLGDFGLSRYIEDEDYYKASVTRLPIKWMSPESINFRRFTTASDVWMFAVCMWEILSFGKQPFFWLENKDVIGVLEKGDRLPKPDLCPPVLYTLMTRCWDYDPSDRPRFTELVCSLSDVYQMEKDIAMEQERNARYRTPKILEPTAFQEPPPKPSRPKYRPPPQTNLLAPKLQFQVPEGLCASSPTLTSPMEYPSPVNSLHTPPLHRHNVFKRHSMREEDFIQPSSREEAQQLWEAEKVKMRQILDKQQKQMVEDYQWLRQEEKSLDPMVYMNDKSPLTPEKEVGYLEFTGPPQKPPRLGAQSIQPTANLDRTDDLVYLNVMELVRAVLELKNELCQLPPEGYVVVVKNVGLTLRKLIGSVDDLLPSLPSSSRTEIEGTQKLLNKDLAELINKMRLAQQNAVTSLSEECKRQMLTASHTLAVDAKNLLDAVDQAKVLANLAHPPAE
Sequence of Genome polyprotein (P29990 2492-3391 limits assumed): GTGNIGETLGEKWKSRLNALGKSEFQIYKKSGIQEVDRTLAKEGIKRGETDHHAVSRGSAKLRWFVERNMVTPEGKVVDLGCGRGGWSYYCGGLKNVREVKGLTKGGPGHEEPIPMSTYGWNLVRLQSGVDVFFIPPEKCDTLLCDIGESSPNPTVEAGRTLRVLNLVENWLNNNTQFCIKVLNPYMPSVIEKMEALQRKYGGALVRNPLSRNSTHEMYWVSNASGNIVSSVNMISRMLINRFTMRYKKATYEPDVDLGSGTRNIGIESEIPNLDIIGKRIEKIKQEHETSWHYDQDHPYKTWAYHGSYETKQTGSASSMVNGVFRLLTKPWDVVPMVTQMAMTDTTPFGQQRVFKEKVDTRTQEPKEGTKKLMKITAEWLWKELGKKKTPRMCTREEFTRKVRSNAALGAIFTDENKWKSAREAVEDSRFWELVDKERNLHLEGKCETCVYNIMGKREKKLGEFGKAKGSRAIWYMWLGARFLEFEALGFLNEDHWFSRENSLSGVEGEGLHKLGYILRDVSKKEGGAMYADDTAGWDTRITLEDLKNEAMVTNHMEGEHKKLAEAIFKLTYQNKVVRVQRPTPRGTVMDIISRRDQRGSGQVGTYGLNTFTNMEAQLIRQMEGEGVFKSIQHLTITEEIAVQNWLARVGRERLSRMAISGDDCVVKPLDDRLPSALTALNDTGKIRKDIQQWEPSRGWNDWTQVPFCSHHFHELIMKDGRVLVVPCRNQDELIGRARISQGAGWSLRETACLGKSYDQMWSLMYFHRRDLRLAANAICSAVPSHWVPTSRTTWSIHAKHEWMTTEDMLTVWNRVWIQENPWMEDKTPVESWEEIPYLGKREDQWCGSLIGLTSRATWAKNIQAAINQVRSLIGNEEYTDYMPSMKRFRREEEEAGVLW
Sequence of Potassium voltage-gated channel subfamily KQT member 2 (O88943 whole entry W236L): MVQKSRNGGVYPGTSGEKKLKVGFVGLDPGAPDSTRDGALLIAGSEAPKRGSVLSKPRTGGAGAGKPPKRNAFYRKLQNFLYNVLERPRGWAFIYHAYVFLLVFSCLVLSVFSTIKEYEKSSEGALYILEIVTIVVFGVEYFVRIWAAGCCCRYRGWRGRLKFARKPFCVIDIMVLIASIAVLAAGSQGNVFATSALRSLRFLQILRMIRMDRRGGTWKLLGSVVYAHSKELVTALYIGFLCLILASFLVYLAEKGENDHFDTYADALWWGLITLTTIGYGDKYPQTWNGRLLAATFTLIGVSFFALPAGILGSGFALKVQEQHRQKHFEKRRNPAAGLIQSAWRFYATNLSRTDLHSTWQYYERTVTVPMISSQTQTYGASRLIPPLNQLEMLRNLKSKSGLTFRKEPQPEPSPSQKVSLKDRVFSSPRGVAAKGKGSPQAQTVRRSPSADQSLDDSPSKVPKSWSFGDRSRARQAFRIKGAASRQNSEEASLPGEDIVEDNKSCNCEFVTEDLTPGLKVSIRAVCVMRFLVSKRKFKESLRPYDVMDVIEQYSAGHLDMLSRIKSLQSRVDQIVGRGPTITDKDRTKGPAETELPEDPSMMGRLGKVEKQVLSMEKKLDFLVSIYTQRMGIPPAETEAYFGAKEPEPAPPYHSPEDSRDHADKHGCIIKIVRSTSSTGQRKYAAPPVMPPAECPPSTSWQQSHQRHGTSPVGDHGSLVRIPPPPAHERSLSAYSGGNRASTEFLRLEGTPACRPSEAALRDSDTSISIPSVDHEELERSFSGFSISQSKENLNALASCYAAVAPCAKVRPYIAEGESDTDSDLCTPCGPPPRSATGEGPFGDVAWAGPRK
Sequence of Glyceraldehyde-3-phosphate dehydrogenase (P04406 whole entry): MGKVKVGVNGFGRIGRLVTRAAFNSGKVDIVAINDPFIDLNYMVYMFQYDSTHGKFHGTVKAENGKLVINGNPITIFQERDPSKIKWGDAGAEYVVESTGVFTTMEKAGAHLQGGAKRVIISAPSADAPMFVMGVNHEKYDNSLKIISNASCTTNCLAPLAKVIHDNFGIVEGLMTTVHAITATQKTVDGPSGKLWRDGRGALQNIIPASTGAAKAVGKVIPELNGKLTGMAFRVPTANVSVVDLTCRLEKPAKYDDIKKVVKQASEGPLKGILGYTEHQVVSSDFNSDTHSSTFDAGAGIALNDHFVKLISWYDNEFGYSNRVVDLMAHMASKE
Sequence of Bcl-2-like protein 1 (Q07817 whole entry): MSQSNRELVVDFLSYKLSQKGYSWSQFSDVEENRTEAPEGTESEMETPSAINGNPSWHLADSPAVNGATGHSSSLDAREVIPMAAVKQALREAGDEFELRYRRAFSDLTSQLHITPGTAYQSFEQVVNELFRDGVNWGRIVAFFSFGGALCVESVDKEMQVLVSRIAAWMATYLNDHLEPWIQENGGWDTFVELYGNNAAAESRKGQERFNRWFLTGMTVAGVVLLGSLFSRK
Sequence of Hepatocyte nuclear factor 4-alpha (P41235 whole entry, the tested form may be a part): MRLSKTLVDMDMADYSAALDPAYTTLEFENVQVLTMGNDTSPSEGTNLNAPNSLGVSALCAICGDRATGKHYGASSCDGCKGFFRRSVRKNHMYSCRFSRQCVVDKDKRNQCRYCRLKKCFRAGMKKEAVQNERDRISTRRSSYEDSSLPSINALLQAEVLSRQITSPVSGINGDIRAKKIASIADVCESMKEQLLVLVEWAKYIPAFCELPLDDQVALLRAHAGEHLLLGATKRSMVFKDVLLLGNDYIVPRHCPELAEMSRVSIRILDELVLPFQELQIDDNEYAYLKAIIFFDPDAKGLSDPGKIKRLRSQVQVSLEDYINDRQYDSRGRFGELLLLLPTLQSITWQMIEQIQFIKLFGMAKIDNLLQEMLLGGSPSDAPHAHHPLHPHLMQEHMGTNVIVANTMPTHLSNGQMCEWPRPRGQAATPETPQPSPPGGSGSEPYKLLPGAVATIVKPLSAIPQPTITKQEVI

## CSc1nnc(NC(=O)c2nc(S(=O)(=O)Cc3ccccc3F)ncc2Cl)s1
[1]
  AC50: 1.55 µM (active)
[2]
  IC50: 3.98 µM (active)
[3]
  EC50: 4.19 µM (active)
Vero
  CC50: 27.8 µM (active)
[4]
  AC50: 13 µM (active)
[5]
  AC50: 2.14 µM (active)
Genome polyprotein
  IC50: 52.3 µM (active)
[6]
  CC50: 35.4 µM (active)
[7]
  AC50: 5 µM (active)
Protein RecA
  EC50: 3.5 µM (active)

## Cc1cc(NC(=O)Cc2cccs2)no1
Bcl-2-like protein 1
  IC50: 53.2 µM (not active)
[8]
  IC50: 6.64 µM (active)
[9]
  IC50: 4.05 µM (active)
[10]
  IC50: 92.2 µM (active)
[11]
  IC50: 15.3 µM (active)
[12]
  IC50: 13.1 µM (active)
[13]
  IC50: 3.93 µM (active)
[14]
  IC50: 1.58 µM (active)

## Nc1ccc(N=Nc2ccccc2)cc1
[15]
  IC50: > 100 µM (active)

## CCOc1ccc(NC(=O)Nc2ccc(N(C)C(C)=O)cc2)cc1
NADPH oxidase 1
  IC50: > 20 µM (not active)

## Cc1cc(C(=O)ON=C(N)c2ccc(C(C)(C)C)cc2)no1
[16]
  EC50: 442 nM (active)
[17]
  EC50: 737 nM (active)
[18]
  EC50: 1.78 µM (active)
[19]
  EC50: < 100 nM (inconclusive)
H4
  EC50: 110 µM (active)

## CCOC(=O)NC1(Nc2cccc(Cl)c2)Oc2ccccc2O1
[20]
  IC50: > 50 µM (not active)
